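Grown in 96-well plates, cells were treated for 48 hours with each compound at five concentrations. Insufficient inhibition: endpoint recorded as highest concentration tested. At the GI50, growth is halved. TGI marks complete inhibition of growth.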
Tests used:
Experiment in all cases: DTP human tumour cell line panel, 48 h
[1] = system: HL-60(TB) leukemia
[2] = system: K-562 leukemia
[3] = system: LOX IMVI melanoma
[4] = system: NCI-H460 lung
[5] = system: OVCAR-8 ovarian
[6] = system: SF-295 CNS
[7] = system: TK-10 renal
[8] = system: UACC-257 melanoma
[9] = system: UO-31 renal
[10] = system: BT-549 breast

SMILES | TGI [1] | TGI [2] | TGI [3] | TGI [4] | TGI [5] | TGI [6] | TGI [7] | TGI [8] | TGI [9] | GI50 [10] | TGI [10] | GI50 [2] | GI50 [3] | GI50 [4] | GI50 [5] | GI50 [6] | GI50 [7] | GI50 [8] | GI50 [9] | GI50 [1]
COc1ccc(OC)c(NC(=O)CCC/C(CC(=O)c2ccc(O)c(OC)c2)=N\Nc2ccc([N+](=O)[O-])cc2)c1 | > 100 µM | > 100 µM | > 100 µM | > 100 µM | > 100 µM | > 100 µM | > 100 µM | > 100 µM | > 100 µM |  |  |  |  |  |  |  |  |  |  | 
O=C(NN1C(=O)CSC12CCCC2)c1[nH]c2ccc(Br)cc2c1-c1ccccc1 |  | 43.2 µM | > 100 µM | > 100 µM | > 100 µM | 69.7 µM | > 100 µM | > 100 µM | > 100 µM | 93.5 µM | > 100 µM | 18.7 µM | 45.5 µM | 46.9 µM | 41 µM | 24.2 µM | 80.9 µM | > 100 µM | 59.1 µM | 
CC1=C2C(=CC(C)(C)C2O)C(=O)C(C)(O)C12CC2 (stereo unspecified) | 0.0149 µM | 0.154 µM | 0.025 µM | 0.0412 µM | 0.0499 µM | 0.0342 µM | 0.14 µM | 0.0442 µM | 0.0291 µM |  |  |  |  |  |  |  |  |  |  | 
COC(=O)C1=C(c2cc(OC)c(OC)c(OC)c2)OC(c2ccc(OC)c(OC)c2)C1 (stereo unspecified) | > 100 µM | > 100 µM | > 100 µM | > 100 µM | > 100 µM | > 100 µM | > 100 µM | > 100 µM | > 100 µM |  |  |  |  |  |  |  |  |  |  | 
C=C1C(=O)OC2C1C(OC(=O)/C(C)=C/C)CC(O)(CCl)C1C(O)C3OC3(C)C21O (stereo unspecified) | 23.2 µM | > 50 µM | > 50 µM | > 50 µM | 42.5 µM | > 50 µM | > 50 µM | > 50 µM |  |  | > 50 µM |  |  |  |  |  |  |  |  | 
C=C1C(=O)OC2/C=C(/C)C(OC(C)=O)CC(O)/C(C)=C\C(OC(=O)/C(C)=C\C)C12 (stereo unspecified) | 60.7 µM | > 100 µM | > 100 µM | > 100 µM | > 100 µM | > 100 µM | > 100 µM | > 100 µM |  |  | > 100 µM |  |  |  |  |  |  |  |  | 
C1=C2/CC[C@H](Sc3ccccc3)[C@H]2C2(CCCCC/1)OCCO2 | 65.7 µM | > 100 µM | 39.5 µM | > 100 µM | > 100 µM | > 100 µM | > 100 µM | 55 µM | > 100 µM |  |  |  |  |  |  |  |  |  |  | 
O=CN/C=C/c1ccc(O)c(O)c1 | > 100 µM | > 100 µM | > 100 µM | > 100 µM | > 100 µM | > 100 µM | > 100 µM | > 100 µM | > 100 µM |  |  |  |  |  |  |  |  |  |  | 
CCOC(=O)NC(=O)c1cn(CCN2CCN(c3ncnc4nc[nH]c34)CC2)c(=O)[nH]c1=O | > 100 µM | > 100 µM | > 100 µM | > 100 µM | > 100 µM | > 100 µM | > 100 µM | > 100 µM | > 100 µM |  |  |  |  |  |  |  |  |  |  | 
Cc1ccc(N2C(=O)C3C=CC(n4[nH]c(=O)n(Cc5ccccc5)c4=O)CC3C2=O)cc1 (stereo unspecified) | > 100 µM | > 100 µM | > 100 µM | > 100 µM | > 100 µM | > 100 µM | > 100 µM | > 100 µM | > 100 µM |  |  |  |  |  |  |  |  |  |  | 
C1CN(SSN2CCOCC2)CCO1 | > 100 µM | > 100 µM |  | > 100 µM | > 100 µM | > 100 µM | > 100 µM | > 100 µM | > 100 µM | 30 µM | > 100 µM | 4.58 µM |  | 28.3 µM | 52.1 µM | 32.4 µM | > 100 µM | 62.8 µM | 49.5 µM | 32.2 µM
O=C1c2ccccc2-c2c1c1ccccc1c(=O)n2CCN1CCOCC1 |  | 73.5 µM | > 100 µM | > 100 µM | > 100 µM | > 100 µM | > 100 µM | > 100 µM | > 100 µM | > 100 µM | > 100 µM | 25.8 µM | 40.5 µM | 55.4 µM | 60.6 µM | 48.1 µM | 84.8 µM | > 100 µM | 64.4 µM | 
Cc1cccc(C(C)C)c1NC(=O)CC1C(=O)Nc2ccccc2S1(=O)=O (stereo unspecified) | 28.4 µM | 10.3 µM | > 51.8 µM | 35.2 µM | > 59 µM | 67.1 µM | 70.1 µM | > 70.8 µM | 84.4 µM |  |  |  |  |  |  |  |  |  |  | 
C[C@]12CCC3[C@@H](CC[C@@H]4c5nonc5CC[C@]34C)C1C/C(=N/O)C2=O (stereo partly specified) | 13.3 µM | > 100 µM | > 100 µM | > 100 µM | > 100 µM | > 100 µM | > 100 µM | > 100 µM | > 100 µM |  |  |  |  |  |  |  |  |  |  | 
O=C(COc1ccc(/C=C2\Oc3ccccc3C2=O)cc1)Nc1nc2c(s1)CCCC2 | 1.31 µM | > 100 µM | 0.0317 µM | > 100 µM |  | 43.9 µM | > 87.6 µM | 0.835 µM | > 49.5 µM | 4.44 µM | > 49.8 µM | 18.8 µM | 0.0175 µM | 30.3 µM |  | 10.1 µM | 26.2 µM | 0.0449 µM | 1.87 µM | 0.424 µM
O=S1(=O)OCCOS(=O)(=O)C1Cc1ccccc1 | 54.5 µM | > 100 µM | > 100 µM | > 100 µM | > 100 µM | > 100 µM | > 100 µM | > 100 µM | > 100 µM |  |  |  |  |  |  |  |  |  |  | 
CN1c2ccccc2N(C)C23N(C)c4ccccc4N(C)C12N(C)c1ccccc1N3C (stereo unspecified) | > 100 µM | > 100 µM | > 100 µM | > 100 µM | > 100 µM | > 100 µM | > 100 µM | > 100 µM | > 100 µM |  |  |  |  |  |  |  |  |  |  | 
CCOC(=O)C(=Cc1cccnc1C)C(=O)OCC | > 100 µM | 17.3 µM | 14.2 µM | 35.8 µM | 16.9 µM | 24.2 µM | 25.5 µM | 20.7 µM | 17.6 µM |  |  |  |  |  |  |  |  |  |  | 
O=C(Nc1ccc(Cl)c(Cl)c1)O/N=C\c1c(Cl)ccc([N+](=O)[O-])c1Cl | 3.13 µM | 6.56 µM | 2.76 µM | 7.68 µM | 8.47 µM | 8.14 µM |  | 2.86 µM | 2.88 µM | 2.57 µM | 6.42 µM | 0.825 µM | 1.24 µM | 2.63 µM | 2.62 µM | 2.8 µM |  | 1.46 µM | 1.45 µM | 1.18 µM

From PubChem BioAssay (NCI)
